Laboratory results published in patent publication US11173151B2, “Substituted triazole derivatives and uses thereof” (BAYER AKTIENGESELLSCHAFT, priority 2017, dated 2021).

How the values were obtained:
human V1a receptor = molecular target: T1, human V1a receptor (Homo sapiens, UniProt P37288); assay: Cellular in vitro assay for determining vasopressin receptor activity, V1a receptor cell line (CHO, aequorin luminescence); assay type: cell-based; settings: for IC50: CHO cell line transfected with human V1a receptor, [Arg]-vasopressin at EC50 concentration, read-out: IC50 hV1a; for ratio IC50 hV2/hV1a: selectivity ratio IC50 hV2 / IC50 hV1a
T1 construct: expressed in transfected cells; host or cells: CHO K1 (ATCC), also stably transfected with a modified aequorin
Summary of the method: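 Antagonism is measured in stable CHO K1 transfectants coexpressing the Gαq-coupled receptor and a calcium-sensitive aequorin photoprotein. Agonist challenge uses [Arg]-vasopressin at EC50 after a 10-minute compound exposure; IC50 values come from the luminescence signal.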

human V2 receptor = molecular target: T2, human V2 receptor (Homo sapiens, UniProt P30518); assay: Cellular in vitro assay for determining vasopressin receptor activity, V2 receptor cell line (CHO, CRE-luciferase); assay type: cell-based; settings: CHO cell line transfected with human V2 receptor; [Arg8]-vasopressin at EC50 concentration, 3 hours; read-out: IC50 hV2
T2 construct: expressed in transfected cells; host or cells: CHO K1 (ATCC) expressing firefly luciferase under a CRE-responsive promoter
T2 sequence (P30518 whole entry): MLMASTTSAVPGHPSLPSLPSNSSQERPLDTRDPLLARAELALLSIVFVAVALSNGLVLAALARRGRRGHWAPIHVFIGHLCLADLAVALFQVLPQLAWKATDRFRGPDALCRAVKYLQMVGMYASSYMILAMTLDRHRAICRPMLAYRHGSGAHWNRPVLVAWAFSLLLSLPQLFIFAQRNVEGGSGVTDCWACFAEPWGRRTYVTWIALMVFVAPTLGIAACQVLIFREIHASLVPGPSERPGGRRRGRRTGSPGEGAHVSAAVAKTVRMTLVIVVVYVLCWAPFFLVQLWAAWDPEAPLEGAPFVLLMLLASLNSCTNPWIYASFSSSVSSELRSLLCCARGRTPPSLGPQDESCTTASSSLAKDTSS

T1 sequence (P37288 whole entry): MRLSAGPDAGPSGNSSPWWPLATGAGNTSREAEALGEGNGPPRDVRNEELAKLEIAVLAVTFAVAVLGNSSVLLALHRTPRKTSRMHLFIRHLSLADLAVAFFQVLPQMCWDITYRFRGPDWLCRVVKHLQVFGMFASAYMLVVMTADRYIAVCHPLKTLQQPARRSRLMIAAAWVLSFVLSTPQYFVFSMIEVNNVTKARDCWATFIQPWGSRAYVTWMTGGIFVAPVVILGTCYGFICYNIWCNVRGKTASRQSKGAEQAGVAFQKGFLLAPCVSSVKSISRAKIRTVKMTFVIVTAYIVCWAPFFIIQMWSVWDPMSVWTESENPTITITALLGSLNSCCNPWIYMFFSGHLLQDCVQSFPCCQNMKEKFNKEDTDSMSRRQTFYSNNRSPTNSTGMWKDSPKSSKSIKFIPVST

Structure (SMILES) | IC50 (human V1a receptor) [nM] | ratio IC50 hV2/hV1a (human V1a receptor) | IC50 (human V2 receptor) [nM]
O=C(NCc1ccccn1)c1ccccc1-n1cnc(Cn2nc(-c3ccc(Cl)cc3)n(C[C@H](O)C(F)(F)F)c2=O)n1 [Example 301, 2-[3-({3-(4-Chlorophenyl)-5-oxo-4-[(2S)-3,3,3-trifluoro-2-hydroxypropyl]-4,5-dihydro-1H-1,2,4-triazol-1-yl}methyl)-1H-1,2,4-triazol-1-yl]-N-(pyridin-2-ylmethyl)benzamide] | 8.75 | 69.7 | 610
O=C(NCc1ccncc1)c1ccccc1-n1cnc(Cn2nc(-c3ccc(Cl)cc3)n(C[C@H](O)C(F)(F)F)c2=O)n1 [Example 302, 2-[3-({3-(4-Chlorophenyl)-5-oxo-4-[(2S)-3,3,3-trifluoro-2-hydroxypropyl]-4,5-dihydro-1H-1,2,4-triazol-1-yl}methyl)-1H-1,2,4-triazol-1-yl]-N-(pyridin-4-ylmethyl)benzamide] | 3.75 | 880.0 | 3300
O=C(Nc1ccc(F)cc1F)c1ccccc1-n1cnc(Cn2nc(-c3ccc(Cl)cc3)n(C[C@H](O)C(F)(F)F)c2=O)n1 [Example 303, 2-[3-({3-(4-Chlorophenyl)-5-oxo-4-[(2S)-3,3,3-trifluoro-2-hydroxypropyl]-4,5-dihydro-1H-1,2,4-triazol-1-yl}methyl)-1H-1,2,4-triazol-1-yl]-N-(2,4-difluorophenyl)benzamide] | 2.15 | 234.9 | 505
O=C(Nc1cc(F)ccc1F)c1ccccc1-n1cnc(Cn2nc(-c3ccc(Cl)cc3)n(C[C@H](O)C(F)(F)F)c2=O)n1 [Example 304, 2-[3-({3-(4-Chlorophenyl)-5-oxo-4-[(2S)-3,3,3-trifluoro-2-hydroxypropyl]-4,5-dihydro-1H-1,2,4-triazol-1-yl}methyl)-1H-1,2,4-triazol-1-yl]-N-(2,5-difluorophenyl)benzamide] | 2.25 | 29.1 | 65.5
O=C(Nc1ccccc1F)c1ccccc1-n1cnc(Cn2nc(-c3ccc(Cl)cc3)n(C[C@H](O)C(F)(F)F)c2=O)n1 [Example 305, 2-[3-({3-(4-Chlorophenyl)-5-oxo-4-[(2S)-3,3,3-trifluoro-2-hydroxypropyl]-4,5-dihydro-1H-1,2,4-triazol-1-yl}methyl)-1H-1,2,4-triazol-1-yl]-N-(2-fluorophenyl)benzamide] | 0.97 | 55.7 | 54
Cc1c(F)cccc1NC(=O)c1ccccc1-n1cnc(Cn2nc(-c3ccc(Cl)cc3)n(C[C@H](O)C(F)(F)F)c2=O)n1 [Example 306, 2-[3-({3-(4-Chlorophenyl)-5-oxo-4-[(2S)-3,3,3-trifluoro-2-hydroxypropyl]-4,5-dihydro-1H-1,2,4-triazol-1-yl}methyl)-1H-1,2,4-triazol-1-yl]-N-(3-fluoro-2-methylphenyl)benzamide] | 1.6 | 77.2 | 124
Cc1ccc(F)c(NC(=O)c2ccccc2-n2cnc(Cn3nc(-c4ccc(Cl)cc4)n(C[C@H](O)C(F)(F)F)c3=O)n2)c1 [Example 307, 2-[3-({3-(4-Chlorophenyl)-5-oxo-4-[(2S)-3,3,3-trifluoro-2-hydroxypropyl]-4,5-dihydro-1H-1,2,4-triazol-1-yl}methyl)-1H-1,2,4-triazol-1-yl]-N-(2-fluoro-5-methylphenyl)benzamide] | 1.65 | 106.1 | 175
O=C(NN1CCOCC1)c1ccccc1-n1cnc(Cn2nc(-c3ccc(Cl)cc3)n(C[C@H](O)C(F)(F)F)c2=O)n1 [Example 308, 2-[3-({3-(4-Chlorophenyl)-5-oxo-4-[(2S)-3,3,3-trifluoro-2-hydroxypropyl]-4,5-dihydro-1H-1,2,4-triazol-1-yl}methyl)-1H-1,2,4-triazol-1-yl]-N-(morpholin-4-yl)benzamide] | 17.5 | 188.6 | 3300
Cc1ccc(NC(=O)c2ccccc2-n2cnc(Cn3nc(-c4ccc(Cl)cc4)n(C[C@H](O)C(F)(F)F)c3=O)n2)c(F)c1 [Example 309, 2-[3-({3-(4-Chlorophenyl)-5-oxo-4-[(2S)-3,3,3-trifluoro-2-hydroxypropyl]-4,5-dihydro-1H-1,2,4-triazol-1-yl}methyl)-1H-1,2,4-triazol-1-yl]-N-(2-fluoro-4-methylphenyl)benzamide] | 1.9 | 61.3 | 116
O=C(Nc1ccc(F)cc1)c1ccccc1-n1cnc(Cn2nc(-c3ccc(Cl)cc3)n(C[C@H](O)C(F)(F)F)c2=O)n1 [Example 310, 2-[3-({3-(4-Chlorophenyl)-5-oxo-4-[(2S)-3,3,3-trifluoro-2-hydroxypropyl]-4,5-dihydro-1H-1,2,4-triazol-1-yl}methyl)-1H-1,2,4-triazol-1-yl]-N-(4-fluorophenyl)benzamide] | 2.6 | 82.7 | 215
O=C(c1ccccc1-n1cnc(Cn2nc(-c3ccc(Cl)cc3)n(C[C@H](O)C(F)(F)F)c2=O)n1)N1CCSCC1 [Example 311, 5-(4-Chlorophenyl)-2-({1-[2-(thiomorpholin-4-ylcarbonyl)phenyl]-1H-1,2,4-triazol-3-yl}methyl)-4-[(2S)-3,3,3-trifluoro-2-hydroxypropyl]-2,4-dihydro-3H-1,2,4-triazol-3-one] | 1.85 | 675.7 | 1250
Nc1cccc(NC(=O)c2ccccc2-n2cnc(Cn3nc(-c4ccc(Cl)cc4)n(C[C@H](O)C(F)(F)F)c3=O)n2)n1 [Example 312, N-(6-Aminopyridin-2-yl)-2-[3-({3-(4-chlorophenyl)-5-oxo-4-[(2S)-3,3,3-trifluoro-2-hydroxypropyl]-4,5-dihydro-1H-1,2,4-triazol-1-yl}methyl)-1H-1,2,4-triazol-1-yl]benzamide] | 6.85 | 19.7 | 135
Cc1ccncc1NC(=O)c1ccccc1-n1cnc(Cn2nc(-c3ccc(Cl)cc3)n(C[C@H](O)C(F)(F)F)c2=O)n1 [Example 313, 2-[3-({3-(4-Chlorophenyl)-5-oxo-4-[(2S)-3,3,3-trifluoro-2-hydroxypropyl]-4,5-dihydro-1H-1,2,4-triazol-1-yl}methyl)-1H-1,2,4-triazol-1-yl]-N-(4-methylpyridin-3-yl)benzamide] | 4.15 | 220.5 | 915
CCN(CC)C(=O)c1ccccc1-n1cnc(Cn2nc(-c3ccc(Cl)cc3)n(C[C@H](O)C(F)(F)F)c2=O)n1 [Example 314, 2-[3-({3-(4-Chlorophenyl)-5-oxo-4-[(2S)-3,3,3-trifluoro-2-hydroxypropyl]-4,5-dihydro-1H-1,2,4-triazol-1-yl}methyl)-1H-1,2,4-triazol-1-yl]-N,N-diethylbenzamide] | 2.15 | 237.2 | 510
O=C(NCc1ccco1)c1ccccc1-n1cnc(Cn2nc(-c3ccc(Cl)cc3)n(C[C@H](O)C(F)(F)F)c2=O)n1 [Example 315, 2-[3-({3-(4-Chlorophenyl)-5-oxo-4-[(2S)-3,3,3-trifluoro-2-hydroxypropyl]-4,5-dihydro-1H-1,2,4-triazol-1-yl}methyl)-1H-1,2,4-triazol-1-yl]-N-(furan-2-ylmethyl)benzamide] | 4.15 | 37.3 | 155
O=C(NC1CCC1)c1ccccc1-n1cnc(Cn2nc(-c3ccc(Cl)cc3)n(C[C@H](O)C(F)(F)F)c2=O)n1 [Example 316, 2-[3-({3-(4-Chlorophenyl)-5-oxo-4-[(2S)-3,3,3-trifluoro-2-hydroxypropyl]-4,5-dihydro-1H-1,2,4-triazol-1-yl}methyl)-1H-1,2,4-triazol-1-yl]-N-cyclobutylbenzamide] | 1.75 | 145.7 | 255
O=C(Nc1c(F)cc(F)cc1F)c1ccccc1-n1cnc(Cn2nc(-c3ccc(Cl)cc3)n(C[C@H](O)C(F)(F)F)c2=O)n1 [Example 317, 2-[3-({3-(4-Chlorophenyl)-5-oxo-4-[(2S)-3,3,3-trifluoro-2-hydroxypropyl]-4,5-dihydro-1H-1,2,4-triazol-1-yl}methyl)-1H-1,2,4-triazol-1-yl]-N-(2,4,6-trifluorophenyl)benzamide] | 2.3 | 123.9 | 285
O=C(NCC1CCCCC1)c1ccccc1-n1cnc(Cn2nc(-c3ccc(Cl)cc3)n(C[C@H](O)C(F)(F)F)c2=O)n1 [Example 318, 2-[3-({3-(4-Chlorophenyl)-5-oxo-4-[(2S)-3,3,3-trifluoro-2-hydroxypropyl]-4,5-dihydro-1H-1,2,4-triazol-1-yl}methyl)-1H-1,2,4-triazol-1-yl]-N-(cyclohexylmethyl)benzamide] | 14.5 | 63.4 | 920
CCCNC(=O)c1ccccc1-n1cnc(Cn2nc(-c3ccc(Cl)cc3)n(C[C@H](O)C(F)(F)F)c2=O)n1 [Example 320, 2-[3-({3-(4-Chlorophenyl)-5-oxo-4-[(2S)-3,3,3-trifluoro-2-hydroxypropyl]-4,5-dihydro-1H-1,2,4-triazol-1-yl}methyl)-1H-1,2,4-triazol-1-yl]-N-propylbenzamide] | 1.35 | 75.9 | 102
CC1CCC(NC(=O)c2ccccc2-n2cnc(Cn3nc(-c4ccc(Cl)cc4)n(C[C@H](O)C(F)(F)F)c3=O)n2)CC1 (stereo partly drawn) [Example 321, 2-[3-({3-(4-Chlorophenyl)-5-oxo-4-[(2S)-3,3,3-trifluoro-2-hydroxypropyl]-4,5-dihydro-1H-1,2,4-triazol-1-yl}methyl)-1H-1,2,4-triazol-1-yl]-N-(4-methylcyclohexyl)benzamide] | 13 | 43.8 | 570
